Values of other authors as cited in patent US20100292326A1, “PHARMACEUTICAL COMPOSITION COMPRISING S-NITROSOGLUTATHIONE AND POLYSACCHARIDE” (priority 2007, published 2010).

Details: buffer

- half-life: 5.5 h
Compound: N[C@@H](CCC(=O)N[C@@H](CSN=O)C(=O)NCC(=O)O)C(=O)O [GSNO, S-nitrosoglutathione]
